Consider 17 compounds from patent US8106236B2, “Triaryl compounds and derivates thereof” (Ortho-McNeil Pharmaceutical, Inc., priority 2006, dated 2012).

Test [1] concerns Aβ42. The experiment in a line: In vivo Aβ42 lowering, mouse. The conditions noted are these: oral dose 30 mpk at 4 hr time point, read-out: Mouse Efficacy % Lowering Aβ 42. The source says:
(§1) To determine whether acute administration of an Aβ42 lowering agent would reduce Aβ42 levels in vivo, non-transgenic rodents, e.g. mice or rats can be used. Alternatively, two to three month old Tg2576 mice expressing APP695 containing the “Swedish” variant can be used or a transgenic mouse model developed by Dr. Fred Van Leuven (K.U.Leuven, Belgium) and co-workers, with neuron-specific expression of a clinical mutant of the human amyloid precursor protein [V717I] (Moechars et al., 1999 J. Biol. Chem. 274, 6483). […] Animals of this age have high levels of Aβ in the brain but no detectable Aβ deposition. Mice treated with the Aβ42 lowering agent will be examined and compared to those untreated or treated with vehicle and brain levels of soluble Aβ42 and total Aβ would be quantitated by standard techniques, for example, using ELISA. Treatment periods may vary from hours to days and will be adjusted based on the results of the Aβ42 lowering once a time course of onset of effect can be established.
(§2) A typical protocol for measuring Aβ42 lowering in vivo is shown but it is only one of many variations that could be used to optimize the levels of detectable Aβ. For example, aliquots of compounds can be dissolved in DMSO (volume equal to 1/10th of the final formulation volume), vortexed and further diluted (1:10) with a 10% (w/v) hydroxypropyl β cyclodextrin (HBC, Aldrich, Ref N° 33,260-7) solution in PBS, where after they are sonicated for 20 seconds.
(§3) Aβ42 lowering agents may be administered as a single oral dose given three to four hours before sacrifice and analysis or alternatively could be given over a course of days and the animals sacrificed three to four hours after the final dose is given.
(§4) Blood is collected at sacrifice. The blood collection is performed via a heart puncture during anesthesia with a mixture of Ketalar (Ketamin), Rompun (Xylazin 2%) and Atropin (2:1:1) and collected in EDTA treated collection tubes. Blood is centrifuged at 4000 g for 5 minutes at 4° C. and the plasma recovered for analysis.
(§5) The mice are anaesthetized with a mixture of Ketalar (Ketamin), Rompun (Xylazin 2%) and Atropin (2:1:1) and flushed trans-cardially with physiological serum at 4° C.
(§6) The brain is removed from the cranium and hindbrain and forebrain are separated with a cut in the coronal/frontal plane. The cerebellum is removed. The forebrain is divided evenly into left and right hemisphere by using a midline sagital cut.
(§7) One hemisphere is immediately immersed in liquid nitrogen and stored at −70° C. until homogenization for biochemical assays.
(§8) Brains are homogenized using a Potter, a glass tube (detergent free, 2 cm^3) and a mechanical homogenizer (650 rpm). A volume of 6.5×½ brain weight of freshly prepared 20 mM Tris/HCl buffer (pH 8.5) with Proteinase Inhibitors (1 tablet per 50 ml Tris/HCl buffer, Complete™, Roche, Mannheim, Germany) is used as homogenization buffer.
(§9) Samples are transferred from −70° C. into a sample holder with liquid nitrogen and each individual sample is pre-warmed by incubation on the bench for a few seconds prior to homogenization. The homogenates are collected in Beckman centrifuge tubes TLX and collected on ice prior to centrifugation. Between two samples, the Potter and the glass tube are rinsed carefully with distilled water without detergents and dried with absorption paper.
(§10) Samples are centrifuged in a pre-cooled ultracentrifuge (Beckman, Mannheim, Germany) for 1 hour and 20 minutes at 48000 rpm (135.000×g) at 4° C. The supernatant (soluble fraction containing secreted APP and amyloid peptides) is separated from the pellet (membrane fraction containing membrane-bound APP-fragments and plaque-associated amyloid peptides in case of aged mice).
(§11) Small reversed phase columns (C18-Sep-Pack Vac 3 cc cartridges, Waters, Mass., MA) are mounted on a vacuum system and washed with 80% acetonitrile in 0.1% Trifluoroacetic acid (A-TFA) followed with 0.1% TFA twice. […]

Test [2] concerns Aβ42. Description: In vivo Aβ42 lowering, rat. The conditions noted are these: oral dose 30 mpk at 4 hr time point.
Text: as §1, §2, §3, §4, §5, §6, §7, §8, §9, §10, §11

The target of the next test is γ-secretase (Homo sapiens, UniProt P49768). Description: Screening for γ-secretase-modulating activity, Aβ42 in SKNBE2 cells carrying APP 695 wild type. Format: cell-based. The conditions noted are these: read-out: WTAPP SKNBE2 Aβ 42% Inhibition at 3 μM. The protocol:
Screening of the Compounds of the Invention for γ-Secretase-Modulating Activity
Cells were grown to near confluency.

In the case of `CC(C)CC(C(=O)O)c1cc(-c2ccc(C(F)(F)F)cc2)cc(-c2ccc(C(F)(F)F)cc2)c1` (stereo not drawn) [Compound 5, 2-(4,4″-Bis-trifluoromethyl-[1,1′;3′,1″]terphenyl-5′-yl)-4-methyl-pentanoic acid], the inhibition in vivo at 30 mg/kg in the test with Aβ42 [1] was found to be 48%. Also, the “Rat Efficacy % Lowering Aβ 42” value with Aβ42 [2] was determined as 29%.

For `CC(C)C[C@@H](C(=O)O)c1cc(-c2ccc(OC(F)(F)F)cc2)cc(-c2ccc(C(F)(F)F)cc2)c1` [Compound 51, (R)-4-Methyl-2-(4-trifluoromethoxy-4″-trifluoromethyl-[1,1′;3′,1″]terphenyl-5′-yl)-pentanoic acid], the inhibition in vivo at 30 mg/kg in the test with Aβ42 [1] turned out to be 50%.

For `CC(C)CC(C(=O)O)c1cc(-c2ccc(C(C)C)cc2)cc(-c2ccc(C(F)(F)F)cc2)c1` (stereo not drawn) [Compound 4, 2-(4-Isopropyl-4″-trifluoromethyl-[1,1′;3′,1″]terphenyl-5′-yl)-4-methyl-pentanoic acid], the inhibition in vivo at 30 mg/kg in the test on Aβ42 [1] stood at 30%.

Take `CC(C)C[C@@H](C(=O)O)c1cc(-c2ccc(C(F)(F)F)cc2)cc(-c2cc(F)cc(F)c2)c1` [Compound 42, (R)-2-(3,5-Difluoro-4″-trifluoromethyl-[1,1′;3′,1″]terphenyl-5′-yl)-4-methyl-pentanoic acid]: the inhibition in vivo at 30 mg/kg with Aβ42 [1] worked out at 48%.

In the case of `CC(C)CC(C(=O)O)c1cc(-c2ccc(C#N)cc2)cc(-c2ccc(C(F)(F)F)cc2)c1` (stereo not drawn) [Compound 16, 2-(4-Cyano-4″-trifluoromethyl-[1,1′;3′,1″]terphenyl-5′-yl)-4-methyl-pentanoic acid], in the test on Aβ42 [1], the inhibition in vivo at 30 mg/kg amounted to 10%.

Turning to `CC(C)C[C@H](C(=O)O)c1cc(-c2ccc(C(F)(F)F)cc2)cc(-c2cc(F)cc(F)c2)c1` [Compound 41, (S)-2-(3,5-Difluoro-4″-trifluoromethyl-[1,1′;3′,1″]terphenyl-5′-yl)-4-methyl-pentanoic acid], the inhibition in vivo at 30 mg/kg in the test on Aβ42 [1] was 58%.

Consider `CC(C)C[C@@H](C(=O)O)c1cc(-c2ccc(C(F)(F)F)cc2)cc(-c2cc(C(F)(F)F)cc(C(F)(F)F)c2)c1` [Compound 44, (R)-4-Methyl-2-(3,5,4″-tris-trifluoromethyl-[1,1′;3′,1″]terphenyl-5′-yl)-pentanoic acid], for which the inhibition in vivo at 30 mg/kg in the test with Aβ42 [1] is 40%. The “Rat Efficacy % Lowering Aβ 42” value in the test with Aβ42 [2] was −10%.

As for `CC(C)C[C@@H](C(=O)O)c1cc(-c2ccc(C(F)(F)F)cc2)cc(-c2ccc(Cl)c(F)c2)c1` [Compound 47, (R)-2-(4-Chloro-3-fluoro-4″-trifluoromethyl-[1,1′;3′,1″]terphenyl-5′-yl)-4-methyl-pentanoic acid], the inhibition in vivo at 30 mg/kg in the test with Aβ42 [1] worked out at 45%.

On to `CC(C)C[C@H](C(=O)O)c1cc(-c2ccc(C(F)(F)F)cc2)cc(-c2cc(C(F)(F)F)cc(C(F)(F)F)c2)c1` [Compound 43, (S)-4-Methyl-2-(3,5,4″-tris-trifluoromethyl-[1,1′;3′,1″]terphenyl-5′-yl)-pentanoic acid], for which the inhibition in vivo at 30 mg/kg with Aβ42 [1] was found to be 40%.

For the compound `CC(C)C[C@H](C(=O)O)c1cc(-c2ccc(C(F)(F)F)cc2)cc(-c2ccc(Cl)c(F)c2)c1` [Compound 50, (S)-2-(4-Chloro-3-fluoro-4″-trifluoromethyl-[1,1′;3′,1″]terphenyl-5′-yl)-4-methyl-pentanoic acid], the inhibition in vivo at 30 mg/kg in the test on Aβ42 [1] was 48%. In the test with Aβ42 [2], the “Rat Efficacy % Lowering Aβ 42” value is recorded as 28%.

Turning to `CC(C)CC(C(=O)O)c1cc(-c2ccc(C(F)(F)F)cc2)cc(-c2cc(F)c(F)c(F)c2)c1` (stereo not drawn) [Compound 14, 4-Methyl-2-(3,4,5-trifluoro-4″-trifluoromethyl-[1,1′;3′,1″]terphenyl-5′-yl)-pentanoic acid], the inhibition in vivo at 30 mg/kg with Aβ42 [1] turned out to be 58%. Also, the “Rat Efficacy % Lowering Aβ 42” value in the test with Aβ42 [2] is reported as 20%.

Take `CC(C)C[C@@H](C(=O)O)c1cc(-c2ccc(C(F)(F)F)cc2)cc(-c2ccc(C(F)(F)F)cc2)c1` [Compound 39, (R)-2-(4,4″-Bis-trifluoromethyl-[1,1′;3′,1″]terphenyl-5′-yl)-4-methyl-pentanoic acid]: in the test on Aβ42 [1], the inhibition in vivo at 30 mg/kg is 50%. In addition, the “Rat Efficacy % Lowering Aβ 42” value in the test on Aβ42 [2] is listed as 27%.

For `CC(C)CC(C(=O)O)c1cc(-c2ccc(OC(F)(F)F)cc2)cc(-c2ccc(C(F)(F)F)cc2)c1` (stereo not drawn) [Compound 20, 4-Methyl-2-(4-trifluoromethoxy-4″-trifluoromethyl-[1,1′;3′,1″]terphenyl-5′-yl)-pentanoic acid], in the test with Aβ42 [1], the inhibition in vivo at 30 mg/kg was found to be 50%. Also, the “Rat Efficacy % Lowering Aβ 42” value with Aβ42 [2] came to 20%.

With `CC(C)C[C@H](C(=O)O)c1cc(-c2ccc(OC(F)(F)F)cc2)cc(-c2ccc(C(F)(F)F)cc2)c1` [Compound 52, (S)-4-Methyl-2-(4-trifluoromethoxy-4″-trifluoromethyl-[1,1′;3′,1″]terphenyl-5′-yl)-pentanoic acid], the inhibition in vivo at 30 mg/kg in the test with Aβ42 [1] worked out at 48%.

With `CC(C)CC(C(=O)O)c1cc(-c2cc(F)cc(F)c2)cc(-c2cc(F)cc(C(F)(F)F)c2)c1` (stereo not drawn) [Compound 32, 4-Methyl-2-(3,5,3″-trifluoro-5″-trifluoromethyl-[1,1′;3′,1″]terphenyl-5′-yl)-pentanoic acid], the inhibition (in general, how much of the control response was suppressed) at 3 µM on γ-secretase was found to be 80%.

For `CC(C)C[C@H](C(=O)O)c1cc(-c2ccc(C(F)(F)F)cc2)cc(-c2ccc(C(F)(F)F)cc2)c1` [Compound 40, (S)-2-(4,4″-Bis-trifluoromethyl-[1,1′;3′,1″]terphenyl-5′-yl)-4-methyl-pentanoic acid], the inhibition in vivo at 30 mg/kg in the test with Aβ42 [1] is 40%. In addition, in the test on Aβ42 [2], the “Rat Efficacy % Lowering Aβ 42” value is 40%.

Take `CC(C)CC(C(=O)O)c1cc(-c2ccc(C(F)(F)F)cc2)cc(-c2cc(Cl)ccc2Cl)c1` (stereo not drawn) [Compound 23, 2-(2,5-Dichloro-4″-trifluoromethyl-[1,1′;3′,1″]terphenyl-5′-yl)-4-methyl-pentanoic acid]: on γ-secretase, the inhibition at 3 µM is 84%.
